Patent US7833985B2, “Angiotensin-converting enzyme inhibitory peptides” (Suntory Holdings Limited, priority 2003, dated 2010)

Biological target: T1, ACE from rabbit lung (Oryctolagus cuniculus, UniProt P12822)
T1 construct: ACE from rabbit lung (Sigma); purchased Sigma; host or cells: rabbit lung
T1 sequence (P12822 34-1310): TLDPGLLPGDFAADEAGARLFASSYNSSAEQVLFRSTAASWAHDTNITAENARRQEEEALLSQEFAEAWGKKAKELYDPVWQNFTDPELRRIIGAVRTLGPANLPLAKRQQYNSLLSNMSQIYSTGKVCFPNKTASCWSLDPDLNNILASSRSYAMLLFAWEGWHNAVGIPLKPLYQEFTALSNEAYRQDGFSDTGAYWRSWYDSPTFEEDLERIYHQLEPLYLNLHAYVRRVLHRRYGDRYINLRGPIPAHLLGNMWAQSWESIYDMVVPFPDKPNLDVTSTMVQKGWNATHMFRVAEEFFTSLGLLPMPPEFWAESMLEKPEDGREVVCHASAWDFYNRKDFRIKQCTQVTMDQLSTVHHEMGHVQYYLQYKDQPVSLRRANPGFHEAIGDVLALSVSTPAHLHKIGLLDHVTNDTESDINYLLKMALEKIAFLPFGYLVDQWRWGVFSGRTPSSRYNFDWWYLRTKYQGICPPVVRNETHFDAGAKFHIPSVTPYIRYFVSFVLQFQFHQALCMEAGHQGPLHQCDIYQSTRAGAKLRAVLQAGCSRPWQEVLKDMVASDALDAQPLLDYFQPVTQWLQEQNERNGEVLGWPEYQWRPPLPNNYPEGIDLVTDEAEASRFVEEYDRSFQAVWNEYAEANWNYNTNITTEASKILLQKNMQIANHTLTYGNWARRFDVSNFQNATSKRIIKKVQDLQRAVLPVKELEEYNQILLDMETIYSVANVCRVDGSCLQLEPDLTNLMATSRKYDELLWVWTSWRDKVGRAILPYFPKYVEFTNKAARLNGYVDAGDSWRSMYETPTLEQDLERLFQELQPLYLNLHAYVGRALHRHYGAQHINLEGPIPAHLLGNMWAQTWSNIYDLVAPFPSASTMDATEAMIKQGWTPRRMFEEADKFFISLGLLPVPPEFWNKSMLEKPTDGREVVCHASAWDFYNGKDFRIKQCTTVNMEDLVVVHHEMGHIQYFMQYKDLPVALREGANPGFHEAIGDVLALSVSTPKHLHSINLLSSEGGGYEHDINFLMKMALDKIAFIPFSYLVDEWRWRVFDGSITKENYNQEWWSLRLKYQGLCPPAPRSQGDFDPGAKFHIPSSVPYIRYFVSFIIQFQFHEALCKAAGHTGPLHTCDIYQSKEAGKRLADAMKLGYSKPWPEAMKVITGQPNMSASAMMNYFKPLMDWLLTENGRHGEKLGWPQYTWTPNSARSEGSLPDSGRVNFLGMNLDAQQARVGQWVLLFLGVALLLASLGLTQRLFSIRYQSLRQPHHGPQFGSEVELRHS
Experiment: ACE inhibitory activity (IC50), fluorometric Bz-Gly-His-Leu hydrolysis
Format: biochemical
Conditions: peptide purified from thermolysin digestion product of sesame protein; 5 μl portion of each fraction
Experimental: In the present invention, the ACE inhibitory activity (IC50) was measured in accordance with the following method.
5 μl of a sample containing the peptide of the invention was pipetted into a 96-well microplate. After adding 25 μl of the buffer and 10 μl of the enzyme, the mixture was thoroughly stirred and incubated at 37° C. for 5 minutes. After adding 10 μl of the substrate, the mixture was reacted at 37° C. for 30 minutes. Then the reaction was ceased by adding 40 μl of 0.1 N NaOH. […] Then the amount of His-Leu formed by the hydrolysis by ACE was determined by exciting (at 355 nm) the fluorescent substance formed by the reaction between the amino group in the histidine residue and o-phthalaldehyde and measuring the fluorescence wavelength at 460 nm. Then the percentage inhibition by the peptide of the invention was determined in accordance with the following equation and the ACE inhibitory activity (IC50) was calculated. Percentage inhibition={1−(A−a)/(B−b)}×100 • A: Measurement of fluorescence when the sample was added. • a: Measurement of fluorescence when the sample was added and the buffer was added as a substitute for the enzyme. • B: Measurement of fluorescence when distilled water was added as a substitute for the sample. • b: Measurement of fluorescence when distilled water was added as a substitute for the sample and the buffer was added as a substitute for the enzyme.

Ile-Val-Tyr
ACE inhibitory activity of the C30 HPLC fractions identified as the peptide: strong ACE inhibitory activities
